Columns and labels:
[1] = tested on: surinam grass; assay: Test B pre/postemergence surinam grass; format: in vivo, Brachiaria decumbens
Summary of the method: (§1)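 Herbicidal effect was estimated by eye on a ten-point control scale after plants spent twelve to sixteen days in a greenhouse following soil or foliar treatment. Foliar sprays targeted plants at one to four leaves; all doses were formulated in a non-phytotoxic solvent with surfactant.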

[2] = tested on: cocklebur; assay: Test B pre/postemergence cocklebur; format: in vivo, Xanthium strumarium
Summary of the method: as §1

[3] = tested on: corn; assay: Test B pre/postemergence corn; format: in vivo, Zea mays
Summary of the method: as §1

[4] = tested on: crabgrass; assay: Test B pre/postemergence crabgrass; format: in vivo, Digitaria sanguinalis
Summary of the method: as §1

[5] = tested on: giant foxtail; assay: Test B pre/postemergence giant foxtail; format: in vivo, Setaria faberii
Summary of the method: as §1

[6] = tested on: morningglory; assay: Test B pre/postemergence morningglory; format: in vivo, Ipomoea hederacea
Summary of the method: as §1

[7] = tested on: pigweed; assay: Test B pre/postemergence pigweed; format: in vivo, Amaranthus retroflexus
Summary of the method: as §1

[8] = tested on: rape; assay: Test B pre/postemergence rape; format: in vivo, Brassica napus
Summary of the method: as §1

[9] = tested on: sugar beet; assay: Test B pre/postemergence sugar beet; format: in vivo, Beta vulgaris
Summary of the method: as §1

[10] = tested on: wheat; assay: Test B pre/postemergence wheat; format: in vivo, Triticum aestivum
Summary of the method: as §1

[11] = tested on: wild oat; assay: Test B pre/postemergence wild oat; format: in vivo, Avena fatua
Summary of the method: as §1

[12] = tested on: purple nutsedge; assay: Test B pre/postemergence purple nutsedge; format: in vivo, Cyperus rotundus
Summary of the method: as §1

[13] = tested on: rice; assay: Test B flood test rice; format: in vivo, Oryza sativa
Summary of the method: (§2)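 Plants were grown to the 2-leaf stage before treatment with test chemical, then held in a greenhouse for twelve to sixteen days. Injury was visually rated against untreated controls on a 0–10 scale, where 0 is no effect and 10 is complete control.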

[14] = tested on: smallflower flatsedge; assay: Test B flood test smallflower flatsedge; format: in vivo, Cyperus difformis
Summary of the method: as §2

[15] = tested on: duck salad; assay: Test B flood test duck salad; format: in vivo, Heteranthera limosa
Summary of the method: as §2

[16] = tested on: bamyardgrass; assay: Test B flood test barnyardgrass; format: in vivo, Echinochloa crus-galli
Summary of the method: as §2

[17] = Postemergence, Rate 125 g/ha, scale of 0 to 10 where 0 is no effect and 10 is complete control
[18] = Preemergence, Rate 62 g/ha, scale 0 to 10 (0 no effect, 10 complete control)
[19] = Preemergence, Rate 125 g/ha, 0 is no effect, 10 is complete control
[20] = Preemergence, Rate 250 g/ha, scale 0 to 10, 0 is no effect, 10 is complete control
[21] = Preemergence, Rate 500 g/ha, scale 0 to 10 (0 no effect, 10 complete control)
[22] = Rate 62 g/ha, Postemergence, scale of 0 to 10 where 0 is no effect and 10 is complete control
[23] = Rate 250 g/ha, Postemergence, scale 0 to 10, 0 is no effect, 10 is complete control
[24] = Rate 500 g/ha, Postemergence, scale 0 to 10
[25] = Postemergence (flood test species), Rate 125 g/ha, scale of 0 to 10 where 0 is no effect and 10 is complete control
[26] = Rate 62 g/ha, Postemergence section, flood test species, scale of 0 to 10 where 0 is no effect and 10 is complete control
[27] = Rate 250 g/ha, Postemergence (flood test), scale 0 to 10, 0 is no effect, 10 is complete control
[28] = Rate 250 g/ha, Pre-emergence, flood-test species, scale 0 to 10, 0 is no effect, 10 is complete control
[29] = Rate 500 g/ha, headed Pre-emergence (flood test species), scale 0 to 10 (0 no effect, 10 complete control)
[30] = Rate 500 g/ha, listed under Postemergence (flood test species), scale 0 to 10
[31] = Rate 1000 g/ha, Pre-emergence (as headed), scale 0 to 10
[32] = Rate 2000 g/ha, Pre-emergence (as headed), scale 0 to 10

C=CCn1c(=O)on(C(=O)N(c2ccc(F)cc2)C2CC2)c1=O [Compound 154]
0: B. signalgrass plant response rating [1, 17] | B. signalgrass plant response rating [1, 18] | B. signalgrass plant response rating (0 to 10 scale) [1, 19] | B. signalgrass plant response rating [1, 20] | B. signalgrass plant response rating [1, 22] | Plant response rating, B. signalgrass [1, 23] | Cocklebur plant response rating [2, 17] | Cocklebur plant response rating [2, 18] | Cocklebur plant response rating (0 to 10 scale) [2, 19] | Cocklebur plant response rating [2, 20] | Cocklebur plant response rating [2, 21] | Cocklebur plant response rating [2, 22] | Plant response rating, Cocklebur [2, 23] | Corn plant response rating [3, 17] | Corn plant response rating [3, 18] | Corn plant response rating (0 to 10 scale) [3, 19] | Corn plant response rating [3, 20] | Corn plant response rating [3, 21] | Corn plant response rating [3, 22] | Plant response rating, Corn [3, 23] | Corn plant response rating [3, 24] | Crabgrass plant response rating [4, 17] | Crabgrass plant response rating [4, 18] | Crabgrass plant response rating (0 to 10 scale) [4, 19] | Crabgrass plant response rating [4, 20] | Crabgrass plant response rating [4, 21] | Crabgrass plant response rating [4, 22] | Giant foxtail plant response rating [5, 17] | Giant foxtail plant response rating [5, 18] | Giant foxtail plant response rating (0 to 10 scale) [5, 19] | Giant foxtail plant response rating [5, 22] | Morningglory plant response rating [6, 17] | Morningglory plant response rating [6, 18] | Morningglory plant response rating (0 to 10 scale) [6, 19] | Morningglory plant response rating [6, 20] | Morningglory plant response rating [6, 21] | Morningglory plant response rating [6, 22] | Redroot pigweed plant response rating [7, 17] | Redroot pigweed plant response rating [7, 22] | Rape plant response rating [8, 17] | Rape plant response rating [8, 18] | Rape plant response rating (0 to 10 scale) [8, 19] | Rape plant response rating [8, 20] | Rape plant response rating [8, 21] | Rape plant response rating [8, 22] | Plant response rating, Rape [8, 23] | Rape plant response rating [8, 24] | Sugarbeets plant response rating [9, 17] | Sugarbeets plant response rating [9, 18] | Sugarbeets plant response rating (0 to 10 scale) [9, 19] | Sugarbeets plant response rating [9, 22] | Plant response rating, Sugarbeets [9, 23] | Sugarbeets plant response rating [9, 24] | Wheat plant response rating [10, 18] | Wheat plant response rating (0 to 10 scale) [10, 19] | Wheat plant response rating [10, 20] | Wheat plant response rating [10, 21] | Wheat plant response rating [10, 22] | Plant response rating, Wheat [10, 23] | Wheat plant response rating [10, 24] | Wild oats plant response rating [11, 18] | Wild oats plant response rating (0 to 10 scale) [11, 19] | Wild oats plant response rating [11, 22] | Plant response rating, Wild oats [11, 23] | Nutsedge plant response rating [12, 17] | Nutsedge plant response rating [12, 18] | Nutsedge plant response rating (0 to 10 scale) [12, 19] | Nutsedge plant response rating [12, 20] | Nutsedge plant response rating [12, 21] | Nutsedge plant response rating [12, 22] | Plant response rating, Nutsedge [12, 23] | Nutsedge plant response rating [12, 24] | Rice plant response rating [13, 25] | Rice plant response rating [13, 26] | Plant response rating, Rice [13, 27] | Rice plant response rating [13, 28] | Plant response rating, Rice [13, 29] | Rice plant response rating [13, 30] | Rice plant response rating [13, 31] | Rice plant response rating [13, 32] | S. Flatsedge plant response rating [14, 25] | S. Flatsedge plant response rating ([14]; Pre-emergence, Rate 1000 g/ha, scale 0 to 10 (0 no effect, 10 complete control)) | S. Flatsedge plant response rating [14, 26] | Plant response rating, S. Flatsedge [14, 27] | S. Flatsedge plant response rating [14, 28] | S. Flatsedge plant response rating [14, 30] | S. Flatsedge plant response rating ([14]; Rate 500 g/ha, Pre-emergence, flood test species, scale 0 to 10 (0 no effect, 10 complete control)) | S. Flatsedge plant response rating [14, 32] | Ducksalad plant response rating [15, 25] | Ducksalad plant response rating [15, 26] | Plant response rating, Ducksalad [15, 27] | Ducksalad plant response rating [15, 28] | Plant response rating, Ducksalad [15, 29] | Ducksalad plant response rating [15, 30] | Ducksalad plant response rating [15, 31] | Ducksalad plant response rating [15, 32] | Barnyardgrass plant response rating [16, 25] | Barnyardgrass plant response rating [16, 26] | Plant response rating, Barnyardgrass [16, 27] | Barnyardgrass plant response rating [16, 28] | Plant response rating, Barnyardgrass [16, 29] | Barnyardgrass plant response rating [16, 30] | Barnyardgrass plant response rating [16, 31] | Barnyardgrass plant response rating ([16]; Rate 2000 g/ha, Pre-emergence (as headed), scale 0 to 10, 0 no effect, 10 complete control)
2: B. signalgrass plant response rating ([1]; Rate 500 g/ha, Postemergence, scale 0 to 10, 0 no effect, 10 complete control) | Cocklebur plant response rating [2, 24] | Morningglory plant response rating [6, 24] | Plant response rating, Redroot pigweed [7, 23]
4: B. signalgrass plant response rating [1, 21] | Sugarbeets plant response rating [9, 20] | Wild oats plant response rating [11, 20]
6: Redroot pigweed plant response rating [7, 18] | Redroot pigweed plant response rating [7, 24] | Sugarbeets plant response rating [9, 21]
1: Plant response rating, Crabgrass [4, 23] | Plant response rating, Giant foxtail [5, 23] | Plant response rating, Morningglory [6, 23] | Wild oats plant response rating [11, 24]
3: Giant foxtail plant response rating [5, 24]
7: Redroot pigweed plant response rating (0 to 10 scale) [7, 19]
9: Redroot pigweed plant response rating [7, 21]
5: Crabgrass plant response rating [4, 24] | Wild oats plant response rating [11, 21]
8: Giant foxtail plant response rating [5, 21] | Redroot pigweed plant response rating [7, 20]
